From patent US7780988B2, “Method for making homogeneous spray-dried solid amorphous drug dispersions using pressure nozzles” (Bend Research, Inc., priority 2002, dated 2010)

Assays:
[1] = Dissolution test of Drug 2 dispersions (as in Example 1, with exceptions); format: physicochemical; conditions: 2000 μg/mL if all of the drug had dissolved, PBS pH 6.5, 37° C.
Method: For this test, samples containing 7.2 mg of the Example 1 dispersion were added to microcentrifuge tubes, in duplicate. The tubes were placed in a 37° C. temperature-controlled chamber, and 1.8 mL PBS at pH 6.5 and having an osmotic pressure of 290 mOsm/kg was added. The samples were mixed using a vortex mixer for about 60 seconds. The samples were centrifuged at 13,000 G at 37° C. for 1 minute. The resulting supernatant solutions were then sampled and diluted 1:6 by volume with methanol and then analyzed by high-performance liquid chromatography (HPLC) at a UV absorbance of 256 nm using a Waters Symmetry C8 column and a mobile phase consisting of 15% (0.2% H3PO4)/85% methanol. The contents of the tubes were mixed on the vortex mixer and allowed to stand undisturbed at 37° C. until the next sample was taken. […]
The solubility and physical properties of the dispersions of Example 4 and Control C2 were determined as in Example 1 with the following exceptions. For measurement of concentration enhancement, sufficient quantities of the dispersion were added to the microcentrifuge tubes such that the concentration if all of the drug had dissolved would be 2000 μg/mL. Samples were analyzed by HPLC, with absorbance at 297 nm (Hewlett Packard 1100 HPLC, Zorbax SB C18 column, 35% acetonitrile/65% H2O). The same properties of a control of crystalline Drug 2 (CD2) alone were also determined.

[2] = Dissolution test of Drug 1 dispersions in PBS (concentration enhancement); format: physicochemical; conditions: PBS pH 6.5, 37° C.
Method: For this test, samples containing 7.2 mg of the Example 1 dispersion were added to microcentrifuge tubes, in duplicate. The tubes were placed in a 37° C. temperature-controlled chamber, and 1.8 mL PBS at pH 6.5 and having an osmotic pressure of 290 mOsm/kg was added. The samples were mixed using a vortex mixer for about 60 seconds. The samples were centrifuged at 13,000 G at 37° C. for 1 minute. The resulting supernatant solutions were then sampled and diluted 1:6 by volume with methanol and then analyzed by high-performance liquid chromatography (HPLC) at a UV absorbance of 256 nm using a Waters Symmetry C8 column and a mobile phase consisting of 15% (0.2% H3PO4)/85% methanol. The contents of the tubes were mixed on the vortex mixer and allowed to stand undisturbed at 37° C. until the next sample was taken. […] Control 1 and crystalline Drug 1 alone were tested using the same procedure.
The concentrations of drug obtained in these samples were used to determine the value of the maximum concentration of drug in the first ninety minutes (Cmax90) and the area under the curve of drug concentration versus time in the first ninety minutes (AUC90).

Row | Structure (SMILES) | AUC90 [1] | Cmax90 [1] | AUC90 ([2]; Drug 1, area under the curve of drug concentration versus time in the first ninety minutes) | Cmax90 ([2]; Drug 1, maximum concentration of drug in the first ninety minutes) | Drug 1 Concentration ([2]; 7.2 mg dispersion in 1.8 mL, time 0 min) | AUC ([2]; elapsed time 0 min) | AUC ([2]; elapsed time 4 min) | AUC ([2]; elapsed time 10 min) | AUC ([2]; elapsed time 20 min) | AUC ([2]; elapsed time 40 min) | AUC ([2]; elapsed time 90 min) | AUC ([2]; elapsed time 1200 min) | Drug 1 Concentration ([2]; time 4 min) | Drug 1 Concentration ([2]; time 10 min) | Drug 1 Concentration ([2]; time 20 min) | Drug 1 Concentration ([2]; time 40 min) | Drug 1 Concentration ([2]; time 90 min) | Drug 1 Concentration ([2]; time 1200 min)
1 | O=C(N[C@@H](Cc1ccccc1)[C@@H](O)C(=O)N1C[C@@H](O)[C@@H](O)C1)c1cc2cc(Cl)ccc2[nH]1 [CD2, 5-chloro-1H-indole-2-carboxylic acid [(1S)-benzyl-3-((3R,4S)-dihydroxypyrroldin-1-yl-)-(2R)-hydroxy-3-oxypropyl]amide] | 12,800 min · μg/mL | 149 µg/mL |  |  |  |  |  |  |  |  |  |  |  |  |  |  |  | 
2 | CCOC(=O)N1c2ccc(C(F)(F)F)cc2C(N(Cc2cc(C(F)(F)F)cc(C(F)(F)F)c2)C(=O)OC)CC1CC (stereo not drawn) [Crystalline Drug 1, 4-[(3,5-bis-trifluoromethyl-benzyl)-methoxycarbonyl-amino]-2-ethyl-6-trifluoromethyl-3,4-dihydro-2H-quinoline-1-carboxylic acid ethyl ester] |  |  | <88 µg·min/mL | <1 µg/mL | 0 µg/mL | 0 µg·min/mL | <2 µg·min/mL | <8 µg·min/mL | <18 µg·min/mL | <38 µg·min/mL | <88 µg·min/mL | <1,200 min · μg/mL | <1 µg/mL | <1 µg/mL | <1 µg/mL | <1 µg/mL | <1 µg/mL | <1 µg/mL
